Measurements reported in ChEMBL document CHEMBL4118051, “Scalemic Caged Xanthones Isolated from the Stem Bark Extract of Garcinia propinqua” (J Nat Prod, 2017).

These compounds were tested on HCT-116 (assay: Cytotoxicity against human HCT116 cells after 24 hrs by MTT assay). Conditions: HCT-116, 24 h.
Format: functional, cell-based
With `CO[C@H]1[C@@H]2C[C@H]3C(C)(C)O[C@@](/C=C/C(C)(C)O)(C2=O)[C@@]32Oc3c(c(O)cc4c3C(C)(C)C(C)O4)C(=O)[C@H]12` (stereo partly drawn) the IC50 was 14.2 µM. In the case of `CC(C)=CCOc1cc(O)c2c(c1)OC13C(=CC4CC1C(C)(C)OC3(CC=C(C)C)C4=O)C2=O` (mixture of isomers), the IC50 is reported as 23.9 µM. Work on `COc1cccc2c1C(=O)c1c(O)c3c(c(O)c1C2=O)C[C@@](O)(C(=O)CO)C[C@@H]3O[C@H]1C[C@H](N)[C@H](O)[C@H](C)O1` [DOXORUBICIN] yielded an IC50 of 9.74 µM.
